Assays:
Nek2 = target: T1, Nek2 (Homo sapiens, UniProt P51955); assay: Nek2 Caliper kinase inhibition assay; format: biochemical; details: 30 μM ATP; for inhibition at 50 µM: @ 50 μM compound
T1 construct: purchased Invitrogen
T1 sequence (P51955 1-445): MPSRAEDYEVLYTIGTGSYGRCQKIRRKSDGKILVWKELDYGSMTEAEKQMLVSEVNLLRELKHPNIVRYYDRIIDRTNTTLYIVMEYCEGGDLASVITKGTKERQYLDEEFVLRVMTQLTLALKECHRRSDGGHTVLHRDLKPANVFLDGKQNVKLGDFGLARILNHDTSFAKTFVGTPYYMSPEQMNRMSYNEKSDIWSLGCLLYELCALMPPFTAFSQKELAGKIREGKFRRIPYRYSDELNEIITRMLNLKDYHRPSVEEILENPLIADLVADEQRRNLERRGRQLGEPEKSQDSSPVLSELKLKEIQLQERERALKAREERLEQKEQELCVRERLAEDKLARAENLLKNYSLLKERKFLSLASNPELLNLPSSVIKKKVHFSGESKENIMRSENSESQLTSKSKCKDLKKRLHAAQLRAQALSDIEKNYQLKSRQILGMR

CDK2 = CDK2 (Homo sapiens, UniProt P24941); assay: CDK2 kinase inhibition assay; format: biochemical; details: for IC50: 12.5 μM ATP; for selectivity for CDK2 over Nek2: from IC50 values

SMILES	inhibition at 50 µM (Nek2) [%]	IC50 (CDK2) [µM]	melting point	IC50 (Nek2; Caliper assay) [µM]	inhibition at 100 µM (Nek2; @ 100 μM compound) [%]	Nek2 IC50 (Nek2; Caliper assay)	selectivity for CDK2 over Nek2 (CDK2) [fold]
CN1CCN(CCCNC(=O)Cc2cccc(Nc3nc(OCC4CCCCC4)c4nc[nH]c4n3)c2)CC1 [Compound 46, 2-[3-(6-Cyclohexylmethoxy-9H-purin-2-ylamino)phenyl]-N-[3-(4-methylpiperazin-1-yl)propyl]acetamide]	–	2.4	157 to 158 °C	3.6	–	–	–
COc1ccc(CNS(=O)(=O)Cc2cccc(Nc3nc(OCC4CCCCC4)c4nc[nH]c4n3)c2)cc1 [Compound 52, 1-[3-(6-Cyclohexylmethoxy-9H-purin-2-ylamino)phenyl]-N-(4-methoxybenzyl)methanesulfonamide]	–	3	118 to 119 °C	–	38	–	–
CC(C)CCNC(=O)Cc1cccc(Nc2nc(OCC3CCCCC3)c3nc[nH]c3n2)c1 [Compound 44, 2-[3-(6-Cyclohexylmethoxy-9H-purin-2-ylamino)phenyl]-N-(3-methylbutyl)acetamide]	29	3.7	–	–	–	–	–
O=C(c1cccc(Nc2nc(OCC3CCCCC3)c3nc[nH]c3n2)c1)N1CCCCC1 [Compound 32, [3-(6-Cyclohexylmethoxy-9H-purin-2-ylamino)phenyl]piperidin-1-ylmethanone]	57	18	133 to 135 °C	–	–	–	–
NS(=O)(=O)c1ccc(Nc2nc(OCC3CCCCC3)c3nc[nH]c3n2)cc1 [Compound 6]	–	–	–	12	–	–	–
O=C(Cc1cccc(Nc2ncc3nc[nH]c3n2)c1)NCCCn1ccnc1 [Compound 67, N-(3-Imidazol-1-yl-propyl)-2-[3-(9H-purin-2-ylamino)phenyl]acetamide]	–	> 100	121 to 122 °C	5.9	–	–	–
CCC(C)Oc1nc(Nc2cccc(CC(=O)NCCCN(C)C)c2)nc2[nH]cnc12 (racemic) [Compound 60, (±)-2-[3-(6-sec-Butoxy-9H-purin-2-ylamino)phenyl]-N-(3-dimethylaminopropyl)acetamide]	–	0.41	97 to 98 °C	4.9	–	–	10
CC(C)N(C(=O)Cc1cccc(Nc2nc(OCC3CCCCC3)c3nc[nH]c3n2)c1)C(C)C [Compound 38]	–	3.2	126 to 127 °C	21	–	–	–
O=[N+]([O-])c1ccc(Nc2nc(OCC3CCCCC3)c3nc[nH]c3n2)cc1 [Compound 19, 6-(Cyclohexylmethoxy)-N-(4-nitrophenyl)-9H-purin-2-amine]	–	1.9	180 to 181 °C	> 50	–	–	–
CN(C)S(=O)(=O)c1cccc(Nc2nc(OCC3CCCCC3)c3nc[nH]c3n2)c1 [Compound 14, 3-(6-Cyclohexylmethoxy-9H-purin-2-ylamino)-N,N-dimethylbenzenesulfonamide]	40	3.5	143 to 145 °C	–	–	–	–
CC(C)(C)C(=O)Nc1ccc(Nc2nc(OCC3CCCCC3)c3nc[nH]c3n2)cc1 [Compound 28, N-(4-(6-(Cyclohexylmethoxy)-9H-purin-2-ylamino)phenyl)pivalamide]	–	9.7	–	24	–	–	–
O=C(Cc1cccc(Nc2nc(OCC3CCCCC3)c3nc[nH]c3n2)c1)NCCCn1ccnc1 [Compound 41, 2-[3-(6-Cyclohexylmethoxy-9H-purin-2-ylamino)phenyl]-N-(3-imidazol-1-yl-propyl)acetamide]	–	1.6	192 to 193 °C	6.13	–	–	–
O=C(Cc1cccc(Nc2nc(OCC3CCCCC3)c3nc[nH]c3n2)c1)NCCCc1ccccc1 [Compound 47, 2-[3-(6-Cyclohexylmethoxy-9H-purin-2-ylamino)phenyl]-N-(3-phenylpropyl)acetamide]	–	10	154 to 155 °C	–	–	Inactive	–
CN(C)[C@@H]1CCN(/C=C/c2nc(Nc3ccccc3)nc3[nH]cnc23)C1 [Compound 73, (R, E)-6-(2-(3-(Dimethylamino)pyrrolidin-1-yl)vinyl)-N-phenyl-9H-purin-2-amine]	–	6.9	136 to 138 °C	3	–	–	–
O=C(Nc1ccc(Nc2nc(OCC3CCCCC3)c3nc[nH]c3n2)cc1)c1ccccc1 [Compound 29, N-(4-(6-(Cyclohexylmethoxy)-9H-purin-2-ylamino)phenyl)benzamide]	36	2.9	–	–	–	–	–
CCOc1nc(Nc2cccc(CC(=O)NCCCN(C)C)c2)nc2[nH]cnc12 [Compound 59, N-(3-Dimethylaminopropyl)-2-[3-(6-ethoxy-9H-purin-2-ylamino)phenyl]acetamide]	–	–	178 to 179 °C	–	–	–	–
c1ccc(Nc2nc(OCC3CCCCC3)c3nc[nH]c3n2)cc1 [2-aminophenyl-6-(cyclohexylmethoxy)-9H-purine]	–	–	–	22	–	–	–
CCOc1nc(Nc2cccc(CC(=O)NCCCN(C)C)c2)nc2[nH]cnc12 [Compound 7]	–	5.6	–	0.89	–	–	–

Now from value to compound, other results behind:

inhibition at 50 µM (Nek2) [%]	IC50 (CDK2) [µM]	melting point	IC50 (Nek2; Caliper assay) [µM]	inhibition at 100 µM (Nek2; @ 100 μM compound) [%]	Nek2 IC50 (Nek2; Caliper assay)	SMILES	selectivity for CDK2 over Nek2 (CDK2) [fold]
82	0.74	141 to 142 °C (dec.)	–	–	–	CCCNC(=O)Cc1cccc(Nc2nc(OCC3CCCCC3)c3nc[nH]c3n2)c1 [Compound 39]	–
–	0.22	228 to 230 °C	6.3	–	–	Nc1ccc(Nc2nc(OCC3CCCCC3)c3[nH]cnc3n2)cc1 [Compound 21, 2-(4-Aminophenyl)amino-6-cyclohexylmethoxy-purine]	–
–	0.8	132 to 133 °C	1.3	–	–	O=C(Cc1cccc(Nc2nc(OCC3CCCCC3)c3nc[nH]c3n2)c1)NCCCO [Compound 40]	–
–	1.1	228 to 229 °C	4.1	–	–	O=C(Cc1cccc(Nc2nc(OCC3CCCCC3)c3nc[nH]c3n2)c1)NC1CCCC1 [Compound 35]	–
26	1.6	134 to 135 °C	–	–	–	CN(C(=O)Cc1cccc(Nc2nc(OCC3CCCCC3)c3nc[nH]c3n2)c1)C1CCCCC1 [Compound 37]	–
46	0.33	148 to 149 °C (dec.)	–	–	–	NC(=S)c1cccc(Nc2nc(OCC3CCCCC3)c3nc[nH]c3n2)c1 [Compound 13, 3-(6-Cyclohexylmethoxy-9H-purin-2-ylamino)thiobenzamide]	–
–	0.59	161 to 162 °C	1	–	–	CN(C)CCNC(=O)Cc1cccc(Nc2nc(OCC3CCCCC3)c3nc[nH]c3n2)c1 [Compound 43, 2-[3-(6-Cyclohexylmethoxy-9H-purin-2-ylamino)phenyl]-N-(2-dimethylaminoethyl)acetamide]	–
–	0.88	–	8.3	–	–	CC(=O)Nc1cccc(Nc2nc(OCC3CCCCC3)c3nc[nH]c3n2)c1 [Compound 27, N-(3-(6-(Cyclohexylmethoxy)-9H-purin-2-ylamino)phenyl)acetamide]	–
53	1.6	–	–	–	–	O=S(=O)(Cc1cccc(Nc2nc(OCC3CCCCC3)c3nc[nH]c3n2)c1)N1CCCCC1 [Compound 49, 1-(3-(6-Cyclohexylmethoxy-9H-purin-2-ylamino)phenylmethanesulfonyl)piperidine]	–
–	0.38	193 to 194 °C	3.6	–	–	NC(=O)Nc1cccc(Nc2nc(OCC3CCCCC3)c3nc[nH]c3n2)c1 [Compound 31, 1-(3-(6-(Cyclohexylmethoxy)-9H-purin-2-ylamino)phenyl) urea]	10
–	0.53	167 to 168 °C	1.42	–	–	CN(C)CCCNS(=O)(=O)Cc1cccc(Nc2nc(OCC3CCCCC3)c3nc[nH]c3n2)c1 [Compound 51, 1-[3-(6-Cyclohexylmethoxy-9H-purin-2-ylamino)phenyl]-N-(3-dimethylaminopropyl)methanesulfonamide]	–
79	0.94	144 to 145 °C	–	–	–	CC(C)CNC(=O)Cc1cccc(Nc2nc(OCC3CCCCC3)c3nc[nH]c3n2)c1 [Compound 34, 2-[3-(6-Cyclohexylmethoxy-9H-purin-2-anilino)]-N-isobutylacetamide]	–
–	0.32	176 to 177 °C	1.3	–	–	CNC(=O)Cc1cccc(Nc2nc(OCC3CCCCC3)c3nc[nH]c3n2)c1 [Compound 15]	–
–	0.86	–	1.1	–	–	O=C(NCCN1CCCCC1)Nc1ccc(Nc2nc(OCC3CCCCC3)c3nc[nH]c3n2)cc1 [Compound 17, 1-(4-(6-(Cyclohexylmethoxy)-9H-purin-2-ylamino)phenyl)-3-(2-(piperidin-1-yl)ethyl)urea]	–
–	0.73	125 to 127 °C	3.8	–	–	CN(C)CCCCNC(=O)c1cccc(Nc2nc(OCC3CCCCC3)c3nc[nH]c3n2)c1 [Compound 33, 3-(6-Cyclohexylmethoxy-9H-purin-2-ylamino)-N-(4-dimethylaminobutyl)benzamide]	–
–	0.89	217 to 218 °C	> 50	–	–	O=[N+]([O-])c1cccc(Nc2nc(OCC3CCCCC3)c3nc[nH]c3n2)c1 [Compound 20, 6-(Cyclohexylmethoxy)-N-(3-nitrophenyl)-9H-purin-2-amine]	–
–	0.77	–	0.83	–	–	CN(C)S(=O)(=O)Cc1cccc(Nc2nc(OCC3CCCCC3)c3nc[nH]c3n2)c1 [Compound 48, [3-(6-Cyclohexylmethoxy-9H-purin-2-ylamino)-phenyl]-N,N-dimethylmethanesulfonamide]	–

From publication PMC5386672, “Structure-guided design of purine-based probes for selective Nek2 inhibition” (Oncotarget, 2016)
